What was measured:
[1] = biological target: Casein kinase I isoform alpha-like (Homo sapiens) (UniProt Q8N752); conditions: Compound concentration 1000.0 nM
[2] = biological target: Mitogen-activated protein kinase kinase kinase kinase 2 (Homo sapiens) (UniProt Q12851); conditions: Compound concentration 1000.0 nM
[3] = tested on: Epidermal growth factor receptor (Homo sapiens), P00533 [UNDEFINED MUTATION]; conditions: Compound concentration 1000.0 nM
[4] = biological target: Rhodopsin kinase GRK7 (Homo sapiens) (UniProt Q8WTQ7); conditions: Compound concentration 1000.0 nM
[5] = biological target: Myotonin-protein kinase (Homo sapiens) (UniProt Q09013); conditions: Compound concentration 1000.0 nM
Myotonin-protein kinase (Homo sapiens), sequence (Q09013 whole entry): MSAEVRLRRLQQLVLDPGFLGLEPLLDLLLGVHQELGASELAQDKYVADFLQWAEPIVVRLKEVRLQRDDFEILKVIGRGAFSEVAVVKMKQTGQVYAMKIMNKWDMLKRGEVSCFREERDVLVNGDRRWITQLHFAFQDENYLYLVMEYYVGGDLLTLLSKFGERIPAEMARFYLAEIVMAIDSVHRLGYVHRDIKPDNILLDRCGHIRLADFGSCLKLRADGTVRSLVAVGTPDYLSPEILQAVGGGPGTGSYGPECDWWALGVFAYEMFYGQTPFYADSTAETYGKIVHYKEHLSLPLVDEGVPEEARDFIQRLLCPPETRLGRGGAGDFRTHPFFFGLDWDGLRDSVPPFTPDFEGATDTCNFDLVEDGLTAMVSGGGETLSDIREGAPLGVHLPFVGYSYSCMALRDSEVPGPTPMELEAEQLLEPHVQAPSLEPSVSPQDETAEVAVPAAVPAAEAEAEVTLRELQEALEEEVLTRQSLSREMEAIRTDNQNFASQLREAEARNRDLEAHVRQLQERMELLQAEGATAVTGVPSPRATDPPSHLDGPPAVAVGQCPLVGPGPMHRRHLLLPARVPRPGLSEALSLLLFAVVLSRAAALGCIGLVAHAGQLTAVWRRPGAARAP

[6] = biological target: Serine/threonine-protein kinase Nek9 (Homo sapiens) (UniProt Q8TD19); conditions: Compound concentration 1000.0 nM
[7] = biological target: Serine/threonine-protein kinase Nek1 (Homo sapiens) (UniProt Q96PY6); conditions: Compound concentration 1000.0 nM
[8] = biological target: Mitogen-activated protein kinase kinase kinase 5 (Homo sapiens) (UniProt Q99683); conditions: Compound concentration 1000.0 nM
[9] = biological target: Histamine H1 receptor (Homo sapiens) (UniProt P35367); conditions: Compound concentration 10.0 uM
[10] = tested on: Mast/stem cell growth factor receptor Kit (Homo sapiens), P10721 [A829P]; conditions: Compound concentration 1000.0 nM
[11] = biological target: Cyclin-dependent kinase 4 (Homo sapiens) (UniProt P11802); conditions: Compound concentration 1000.0 nM
[12] = biological target: Bone morphogenetic protein receptor type-1A (Homo sapiens) (UniProt P36894); conditions: Compound concentration 1000.0 nM
[13] = biological target: Interferon-induced, double-stranded RNA-activated protein kinase (Homo sapiens) (UniProt P19525); conditions: Compound concentration 1000.0 nM
[14] = biological target: Mitogen-activated protein kinase kinase kinase 13 (Homo sapiens) (UniProt O43283); conditions: Compound concentration 1000.0 nM
[15] = biological target: Tyrosine-protein kinase receptor UFO (Homo sapiens) (UniProt P30530); conditions: Compound concentration 1000.0 nM
[16] = biological target: Inhibitor of nuclear factor kappa-B kinase subunit beta (Homo sapiens) (UniProt O14920); conditions: Compound concentration 1000.0 nM
[17] = tested on: Epidermal growth factor receptor (Homo sapiens), P00533 [UNDEFINED MUTATION]; conditions: Compound concentration 1000.0 nM; remark: listed apart in the source
[18] = biological target: Cyclin-dependent kinase 7 (Homo sapiens) (UniProt P50613); conditions: Compound concentration 1000.0 nM
Cyclin-dependent kinase 7 (Homo sapiens), sequence (P50613 whole entry): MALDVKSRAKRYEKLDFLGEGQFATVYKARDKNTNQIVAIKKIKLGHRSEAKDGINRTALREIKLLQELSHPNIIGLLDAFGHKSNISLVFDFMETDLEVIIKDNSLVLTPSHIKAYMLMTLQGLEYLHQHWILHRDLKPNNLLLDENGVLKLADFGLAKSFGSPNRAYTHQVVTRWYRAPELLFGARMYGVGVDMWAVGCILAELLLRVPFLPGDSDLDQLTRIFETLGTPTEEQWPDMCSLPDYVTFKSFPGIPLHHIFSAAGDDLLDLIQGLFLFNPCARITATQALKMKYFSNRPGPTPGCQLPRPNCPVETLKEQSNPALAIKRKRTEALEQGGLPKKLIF

[19] = biological target: Platelet-derived growth factor receptor beta (Homo sapiens) (UniProt P09619); conditions: Compound concentration 1000.0 nM
[20] = biological target: Tyrosine-protein kinase Lck (Homo sapiens) (UniProt P06239); conditions: Compound concentration 1000.0 nM
[21] = biological target: Glycogen synthase kinase-3 alpha (Homo sapiens) (UniProt P49840); conditions: Compound concentration 1000.0 nM
[22] = biological target: Receptor-type tyrosine-protein kinase FLT3 (Homo sapiens) (UniProt P36888); conditions: Compound concentration 1000.0 nM
[23] = biological target: Serine/threonine-protein kinase 33 (Homo sapiens) (UniProt Q9BYT3); conditions: Compound concentration 1000.0 nM
[24] = biological target: Serine/threonine-protein kinase Chk1 (Homo sapiens) (UniProt O14757); conditions: Compound concentration 1000.0 nM
[25] = biological target: Casein kinase II subunit alpha' (Homo sapiens) (UniProt P19784); conditions: Compound concentration 1000.0 nM
Casein kinase II subunit alpha' (Homo sapiens), sequence (P19784 whole entry, looked up): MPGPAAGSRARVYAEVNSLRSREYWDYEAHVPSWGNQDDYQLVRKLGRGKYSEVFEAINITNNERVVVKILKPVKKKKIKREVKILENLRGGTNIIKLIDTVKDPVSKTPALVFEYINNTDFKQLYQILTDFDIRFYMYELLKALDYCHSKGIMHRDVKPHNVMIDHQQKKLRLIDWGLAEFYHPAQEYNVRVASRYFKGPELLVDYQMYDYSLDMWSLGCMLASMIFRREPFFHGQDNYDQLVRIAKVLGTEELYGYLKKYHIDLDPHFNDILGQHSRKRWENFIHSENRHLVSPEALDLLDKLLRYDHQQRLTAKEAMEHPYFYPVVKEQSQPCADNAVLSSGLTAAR

[26] = biological target: Bone morphogenetic protein receptor type-2 (Homo sapiens) (UniProt Q13873); conditions: Compound concentration 1000.0 nM
[27] = biological target: cAMP-dependent protein kinase catalytic subunit beta (Homo sapiens) (UniProt P22694); conditions: Compound concentration 1000.0 nM
[28] = biological target: Serine/threonine-protein kinase pim-2 (Homo sapiens) (UniProt Q9P1W9); conditions: Compound concentration 1000.0 nM
[29] = biological target: Tyrosine-protein kinase Srms (Homo sapiens) (UniProt Q9H3Y6); conditions: Compound concentration 1000.0 nM
Tyrosine-protein kinase Srms (Homo sapiens), sequence (Q9H3Y6 whole entry): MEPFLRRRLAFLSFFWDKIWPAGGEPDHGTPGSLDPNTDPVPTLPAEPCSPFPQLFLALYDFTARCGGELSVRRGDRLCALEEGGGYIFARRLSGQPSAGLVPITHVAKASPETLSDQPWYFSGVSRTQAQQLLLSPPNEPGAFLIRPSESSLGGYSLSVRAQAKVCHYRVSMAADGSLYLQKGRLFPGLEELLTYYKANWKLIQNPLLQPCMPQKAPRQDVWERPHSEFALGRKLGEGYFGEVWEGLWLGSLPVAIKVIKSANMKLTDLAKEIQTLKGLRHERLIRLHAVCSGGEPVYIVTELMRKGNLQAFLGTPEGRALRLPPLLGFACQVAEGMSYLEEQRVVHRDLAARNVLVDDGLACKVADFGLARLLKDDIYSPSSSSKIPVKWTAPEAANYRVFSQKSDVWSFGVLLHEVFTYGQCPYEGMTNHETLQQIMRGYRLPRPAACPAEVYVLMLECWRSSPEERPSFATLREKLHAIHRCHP

[30] = tested on: Receptor-type tyrosine-protein kinase FLT3 (Homo sapiens), P36888 [UNDEFINED MUTATION]; conditions: Compound concentration 1000.0 nM
[31] = biological target: GABA-A receptor; anion channel (Rattus norvegicus) (UniProt O09028+P15431+P18506+P18508+P19969+P20236+P23574+P23576+P28471+P28473+P30191+P62813+P63079+P63138+Q91ZM7+Q9ES14); conditions: Compound concentration 10.0 uM
[32] = biological target: Kappa-type opioid receptor (Homo sapiens) (UniProt P41145); conditions: Compound concentration 10.0 uM
[33] = tested on: Phosphatidylinositol 4,5-bisphosphate 3-kinase catalytic subunit alpha isoform (Homo sapiens), P42336 [C420R]; conditions: Compound concentration 1000.0 nM
Phosphatidylinositol 4,5-bisphosphate 3-kinase catalytic subunit alpha isoform (Homo sapiens), P42336 [C420R], sequence (P42336 whole entry C420R, canonical isoform): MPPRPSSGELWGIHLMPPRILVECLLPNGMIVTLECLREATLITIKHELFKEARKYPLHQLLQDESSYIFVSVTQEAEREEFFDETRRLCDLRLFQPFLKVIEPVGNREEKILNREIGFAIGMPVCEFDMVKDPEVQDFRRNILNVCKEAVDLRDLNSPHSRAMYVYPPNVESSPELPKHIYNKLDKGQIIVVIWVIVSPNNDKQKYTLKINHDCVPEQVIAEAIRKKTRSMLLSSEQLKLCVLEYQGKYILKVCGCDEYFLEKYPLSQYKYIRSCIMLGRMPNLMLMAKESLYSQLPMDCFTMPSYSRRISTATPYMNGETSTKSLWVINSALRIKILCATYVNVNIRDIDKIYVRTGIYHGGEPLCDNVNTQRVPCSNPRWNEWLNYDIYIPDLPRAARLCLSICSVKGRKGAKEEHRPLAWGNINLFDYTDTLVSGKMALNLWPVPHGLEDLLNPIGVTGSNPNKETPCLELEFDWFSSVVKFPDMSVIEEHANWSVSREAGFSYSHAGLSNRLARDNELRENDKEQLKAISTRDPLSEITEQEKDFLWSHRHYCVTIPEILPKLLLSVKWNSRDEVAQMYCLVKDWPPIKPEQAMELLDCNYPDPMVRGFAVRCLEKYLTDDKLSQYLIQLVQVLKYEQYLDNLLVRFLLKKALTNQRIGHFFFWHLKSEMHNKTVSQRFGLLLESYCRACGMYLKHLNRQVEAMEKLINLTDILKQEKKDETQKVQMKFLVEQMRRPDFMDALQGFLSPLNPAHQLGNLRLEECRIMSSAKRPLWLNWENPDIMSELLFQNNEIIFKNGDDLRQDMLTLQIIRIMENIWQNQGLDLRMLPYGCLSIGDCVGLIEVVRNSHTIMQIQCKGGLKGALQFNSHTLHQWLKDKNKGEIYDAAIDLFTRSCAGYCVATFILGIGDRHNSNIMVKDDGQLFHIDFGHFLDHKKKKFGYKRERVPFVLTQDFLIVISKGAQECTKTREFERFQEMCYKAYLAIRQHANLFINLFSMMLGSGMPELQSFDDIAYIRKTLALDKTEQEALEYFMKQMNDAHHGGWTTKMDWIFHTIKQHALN

[34] = tested on: Proto-oncogene tyrosine-protein kinase receptor Ret (Homo sapiens), P07949 [V804M]; conditions: Compound concentration 1000.0 nM
[35] = biological target: Tyrosine-protein kinase Fer (Homo sapiens) (UniProt P16591); conditions: Compound concentration 1000.0 nM
[36] = biological target: Sigma intracellular receptor 2 (Homo sapiens) (UniProt Q5BJF2); conditions: Compound concentration 10.0 uM
Sigma intracellular receptor 2 (Homo sapiens), sequence (Q5BJF2 whole entry): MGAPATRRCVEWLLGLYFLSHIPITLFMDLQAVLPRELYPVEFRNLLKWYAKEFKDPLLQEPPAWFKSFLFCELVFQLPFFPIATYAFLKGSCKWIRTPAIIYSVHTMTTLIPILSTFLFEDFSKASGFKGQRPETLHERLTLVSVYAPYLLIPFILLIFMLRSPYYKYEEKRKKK

[37] = biological target: Serine/threonine-protein kinase MRCK alpha (Homo sapiens) (UniProt Q5VT25); conditions: Compound concentration 1000.0 nM
[38] = biological target: Serine/threonine-protein kinase RIO2 (Homo sapiens) (UniProt Q9BVS4); conditions: Compound concentration 1000.0 nM
[39] = biological target: Ribosomal protein S6 kinase alpha-6 (Homo sapiens) (UniProt Q9UK32); conditions: Compound concentration 1000.0 nM
[40] = biological target: Muscarinic acetylcholine receptor M5 (Homo sapiens) (UniProt P08912); conditions: Compound concentration 10.0 uM
[41] = biological target: Casein kinase II subunit alpha (Homo sapiens) (UniProt P68400); conditions: Compound concentration 1000.0 nM
[42] = biological target: Mitogen-activated protein kinase kinase kinase 3 (Homo sapiens) (UniProt Q99759); conditions: Compound concentration 1000.0 nM
Mitogen-activated protein kinase kinase kinase 3 (Homo sapiens), sequence (Q99759 whole entry): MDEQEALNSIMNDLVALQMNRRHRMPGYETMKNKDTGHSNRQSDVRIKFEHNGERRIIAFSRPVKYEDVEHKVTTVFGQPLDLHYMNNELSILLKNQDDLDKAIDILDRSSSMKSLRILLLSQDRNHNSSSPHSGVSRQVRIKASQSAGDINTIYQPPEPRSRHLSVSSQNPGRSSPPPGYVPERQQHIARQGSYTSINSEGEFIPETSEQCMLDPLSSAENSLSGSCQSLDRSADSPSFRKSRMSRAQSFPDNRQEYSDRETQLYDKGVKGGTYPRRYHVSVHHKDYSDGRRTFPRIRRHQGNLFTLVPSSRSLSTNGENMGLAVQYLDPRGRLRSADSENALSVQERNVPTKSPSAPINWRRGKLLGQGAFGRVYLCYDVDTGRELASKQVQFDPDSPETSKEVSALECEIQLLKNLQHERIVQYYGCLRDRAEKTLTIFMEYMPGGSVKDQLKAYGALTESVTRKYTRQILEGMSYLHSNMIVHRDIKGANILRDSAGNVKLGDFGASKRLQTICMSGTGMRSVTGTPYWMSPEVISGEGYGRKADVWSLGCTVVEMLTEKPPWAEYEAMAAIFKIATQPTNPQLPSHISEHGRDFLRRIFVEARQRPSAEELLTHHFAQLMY

[43] = biological target: Tyrosine-protein kinase ABL2 (Homo sapiens) (UniProt P42684); conditions: Compound concentration 1000.0 nM

Epidermal growth factor receptor (Homo sapiens), P00533 [UNDEFINED MUTATION], sequence (P00533 whole entry, looked up, change not shown): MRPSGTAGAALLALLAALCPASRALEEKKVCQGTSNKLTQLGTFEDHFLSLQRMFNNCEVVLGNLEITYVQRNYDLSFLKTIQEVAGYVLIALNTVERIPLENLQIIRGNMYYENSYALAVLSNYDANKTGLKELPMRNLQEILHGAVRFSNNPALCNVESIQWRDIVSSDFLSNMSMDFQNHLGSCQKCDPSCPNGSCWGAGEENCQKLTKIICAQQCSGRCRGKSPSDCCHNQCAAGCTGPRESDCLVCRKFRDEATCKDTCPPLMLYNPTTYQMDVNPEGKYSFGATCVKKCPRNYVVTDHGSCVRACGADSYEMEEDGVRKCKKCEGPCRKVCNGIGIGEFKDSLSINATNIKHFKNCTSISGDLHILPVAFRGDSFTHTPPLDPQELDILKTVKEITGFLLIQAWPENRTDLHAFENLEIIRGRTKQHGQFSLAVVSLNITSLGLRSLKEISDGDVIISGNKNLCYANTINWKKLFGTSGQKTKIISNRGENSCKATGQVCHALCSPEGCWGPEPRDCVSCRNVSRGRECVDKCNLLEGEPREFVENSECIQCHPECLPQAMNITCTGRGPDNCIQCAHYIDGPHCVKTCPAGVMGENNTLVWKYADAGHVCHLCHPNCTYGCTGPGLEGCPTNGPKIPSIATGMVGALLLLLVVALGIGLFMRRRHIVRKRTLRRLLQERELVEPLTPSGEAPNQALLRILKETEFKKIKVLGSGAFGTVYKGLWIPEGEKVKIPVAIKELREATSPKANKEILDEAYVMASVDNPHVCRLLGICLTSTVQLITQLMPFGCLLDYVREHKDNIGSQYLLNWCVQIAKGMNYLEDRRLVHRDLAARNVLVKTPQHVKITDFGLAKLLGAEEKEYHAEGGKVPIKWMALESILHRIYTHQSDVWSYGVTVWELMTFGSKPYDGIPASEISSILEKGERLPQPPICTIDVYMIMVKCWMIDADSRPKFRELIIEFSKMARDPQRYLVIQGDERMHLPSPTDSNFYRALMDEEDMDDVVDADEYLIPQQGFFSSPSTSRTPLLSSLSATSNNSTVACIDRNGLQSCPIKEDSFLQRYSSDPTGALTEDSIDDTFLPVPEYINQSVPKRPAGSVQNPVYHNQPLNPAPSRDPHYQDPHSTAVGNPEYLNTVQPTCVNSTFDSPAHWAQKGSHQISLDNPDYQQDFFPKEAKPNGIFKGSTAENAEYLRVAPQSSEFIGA

`O=C(O)[C@@H]1[C@@H](Cn2nnc3ccccc3c2=O)CC[C@H]1C(=O)c1ccc(OCCC2CCOCC2)cc1` [BAY-694] showed a residual activity [1] of 100%, a residual activity [2] of 97% and a residual activity [3] of 100%. The residual activity [4] was 100%, the residual activity [5] was 100% and the residual activity [6] was 100%. For the same compound, the residual activity [7] was 100%, the residual activity [8] was 94% and the inhibition [9] was 1.6%. It also gave a residual activity [10] of 90%, a residual activity [11] of 83% and a residual activity [12] of 100%. It also gave a residual activity [13] of 100%, a residual activity [14] of 70% and a residual activity [15] of 100%. The residual activity [16] was 100%, the residual activity [17] was 53% and the residual activity [18] was 86%. It also gave a residual activity [19] of 100%, a residual activity [20] of 93% and a residual activity [21] of 93%. It also gave a residual activity [22] of 86%, a residual activity [23] of 69% and a residual activity [24] of 100%. The residual activity [25] was 88%, the residual activity [26] was 98% and the residual activity [27] was 100%. It also gave a residual activity [28] of 94%, a residual activity [29] of 100% and a residual activity [30] of 100%. For the same compound, the inhibition [31] was 13.1%, the inhibition [32] was 8.5% and the residual activity [33] was 100%. For the same compound, the residual activity [34] was 100%, the residual activity [35] was 87% and the inhibition [36] was 39.3%. It also gave a residual activity [37] of 91%, a residual activity [38] of 88% and a residual activity [39] of 100%. The inhibition [40] was 1.82%, the residual activity [41] was 87% and the residual activity [42] was 100%. The residual activity [43] was 92%.

With `O=C(O)[C@H]1[C@H](Cn2nnc3ccccc3c2=O)CC[C@@H]1C(=O)c1ccc(OCCC2CCOCC2)cc1` [BAY-7598] the residual activity [1] was 100%, the residual activity [2] was 100% and the residual activity [3] was 100%. The residual activity [4] was 100%, the residual activity [5] was 83% and the residual activity [6] was 91%. For the same compound, the residual activity [7] was 82%, the residual activity [8] was 95% and the inhibition [9] was -8.85%. The residual activity [10] was 84%, the residual activity [11] was 89% and the residual activity [12] was 61%. The residual activity [13] was 91%, the residual activity [14] was 96% and the residual activity [15] was 100%. For the same compound, the residual activity [16] was 100%, the residual activity [17] was 40% and the residual activity [18] was 95%. The residual activity [19] was 88%, the residual activity [20] was 78% and the residual activity [21] was 74%. The residual activity [22] was 96%, the residual activity [23] was 98% and the residual activity [24] was 100%. The residual activity [25] was 79%, the residual activity [26] was 100% and the residual activity [27] was 95%. The residual activity [28] was 96%, the residual activity [29] was 100% and the residual activity [30] was 93%. The inhibition [31] was 6.48%, the inhibition [32] was -3.04% and the residual activity [33] was 100%. The residual activity [34] was 96%, the residual activity [35] was 90% and the inhibition [36] was 28.5%. It also gave a residual activity [37] of 100%, a residual activity [38] of 100% and a residual activity [39] of 97%. The inhibition [40] was 4.3%, the residual activity [41] was 100% and the residual activity [42] was 100%. For the same compound, the residual activity [43] was 99%.

— ChEMBL document CHEMBL4507264, “Data for DCP probe BAY-7598” (2021)
